Values quoted from earlier work in patent US8946410B2, “Automated radiosynthesis” (GE Healthcare Limited, priority 2009, dated 2015).

Target: GABAA receptor
Conditions: GABAA receptor affinity, related art

Ki: ~0.5 nM
SMILES: CCOC(=O)c1ncn2c1CN(C)C(=O)c1cc([18F])ccc1-2 [[^18F]FMZ, [^18F]Flumazenil]
